In one experiment the target is PI3K-alpha (Homo sapiens, UniProt P42336). Put plainly: PI3K-alpha fluorescence polarization assay. In kind it is biochemical. Particulars: read-out: PI3 Kinase α IC50. In a few lines: (§1)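 Diluted enzyme and compound (1% DMSO) reacted with diC8 PIP2 and ATP substrate in 20 mM HEPES pH 7.5, 2 mM MgCl2, 0.05% CHAPS for 30–60 min. Stopped with EDTA buffer holding 10 nM TAMRA probe and 70 nM GST-GRP. FP (mP) read after 30–90 min against zero-time and no-enzyme controls.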

Another experiment addresses PI3K-gamma (Homo sapiens, UniProt P48736). Put plainly: PI3K-gamma fluorescence polarization assay. Type of experiment: biochemical. The note with it: read-out: PI3 Kinase γ IC50. Put shortly: as §1
In general terms: Polarisation of emitted light reports the rotation of a fluorescent probe.

Another experiment deals with human SMG-1 (hSMG-1) (Homo sapiens, UniProt Q96Q15). Put plainly: hSMG-1 kinase assay (DELFIA). Type of experiment: biochemical. Particulars: read-out: hSMG1 IC50.
The target of experiment [1] is T1, Human mTOR (Homo sapiens, UniProt P42345). As to the kind of experiment: mTOR kinase assay (DELFIA format, purified enzyme). In kind it is biochemical. Also noted: FLAG. Particulars: read-out: TOR Kinase IC50.
For experiment [2], the system named is human prostate LNCap tumor cell line. Put plainly: In vitro cell culture growth assay (MTS), LNCap. In kind it is cell-based. Particulars: 72 h, three days after drug treatment. As for the experimental part: (§2) Cell Lines used are human prostate LNCap and human breast MDA468 tumor cell lines. Cells are plated in 96-well culture plates at approximately 3000 cells per well. […] Three days after drug treatment, viable cell densities are determined by cell mediated metabolic conversion of the dye MTS, a well-established indicator of cell proliferation in vitro. Cell growth assays are performed using kits purchased from Promega Corporation (Madison, Wis.), following the protocol provided by the vendor. Measuring absorbance at 490 nm generates MTS assay results. Compound effect on cell proliferation is assessed relative to untreated control cell growth.

Experiment [3] deals with human breast MDA468 tumor cell line. Put plainly: In vitro cell culture growth assay (MTS), MDA468. Type of experiment: cell-based. The note with it: 72 h, three days after drug treatment. How it is done:
as §2

Experiment [4] concerns acute lymphoblastic leukemia xenograft. The note with it: NOS/SCID xenograft mouse model of acute lymphoblastic leukemia; cited from earlier work.
Another experiment addresses hSMG-1 (Homo sapiens, UniProt Q96Q15). Particulars: read-out: hSMG-1 kinase activity IC50; cited from earlier work.
For experiment [5], the system named is human tumor xenograft models. Particulars: cited from earlier work.
Experiment [6] concerns the target T1, Human mTOR. The note with it: read-out: mTOR enzymes IC50; cited from earlier work.

Like-named read-outs stand apart in the source and are kept apart here.

Sequence of human SMG-1 (hSMG-1) (Q96Q15 whole entry): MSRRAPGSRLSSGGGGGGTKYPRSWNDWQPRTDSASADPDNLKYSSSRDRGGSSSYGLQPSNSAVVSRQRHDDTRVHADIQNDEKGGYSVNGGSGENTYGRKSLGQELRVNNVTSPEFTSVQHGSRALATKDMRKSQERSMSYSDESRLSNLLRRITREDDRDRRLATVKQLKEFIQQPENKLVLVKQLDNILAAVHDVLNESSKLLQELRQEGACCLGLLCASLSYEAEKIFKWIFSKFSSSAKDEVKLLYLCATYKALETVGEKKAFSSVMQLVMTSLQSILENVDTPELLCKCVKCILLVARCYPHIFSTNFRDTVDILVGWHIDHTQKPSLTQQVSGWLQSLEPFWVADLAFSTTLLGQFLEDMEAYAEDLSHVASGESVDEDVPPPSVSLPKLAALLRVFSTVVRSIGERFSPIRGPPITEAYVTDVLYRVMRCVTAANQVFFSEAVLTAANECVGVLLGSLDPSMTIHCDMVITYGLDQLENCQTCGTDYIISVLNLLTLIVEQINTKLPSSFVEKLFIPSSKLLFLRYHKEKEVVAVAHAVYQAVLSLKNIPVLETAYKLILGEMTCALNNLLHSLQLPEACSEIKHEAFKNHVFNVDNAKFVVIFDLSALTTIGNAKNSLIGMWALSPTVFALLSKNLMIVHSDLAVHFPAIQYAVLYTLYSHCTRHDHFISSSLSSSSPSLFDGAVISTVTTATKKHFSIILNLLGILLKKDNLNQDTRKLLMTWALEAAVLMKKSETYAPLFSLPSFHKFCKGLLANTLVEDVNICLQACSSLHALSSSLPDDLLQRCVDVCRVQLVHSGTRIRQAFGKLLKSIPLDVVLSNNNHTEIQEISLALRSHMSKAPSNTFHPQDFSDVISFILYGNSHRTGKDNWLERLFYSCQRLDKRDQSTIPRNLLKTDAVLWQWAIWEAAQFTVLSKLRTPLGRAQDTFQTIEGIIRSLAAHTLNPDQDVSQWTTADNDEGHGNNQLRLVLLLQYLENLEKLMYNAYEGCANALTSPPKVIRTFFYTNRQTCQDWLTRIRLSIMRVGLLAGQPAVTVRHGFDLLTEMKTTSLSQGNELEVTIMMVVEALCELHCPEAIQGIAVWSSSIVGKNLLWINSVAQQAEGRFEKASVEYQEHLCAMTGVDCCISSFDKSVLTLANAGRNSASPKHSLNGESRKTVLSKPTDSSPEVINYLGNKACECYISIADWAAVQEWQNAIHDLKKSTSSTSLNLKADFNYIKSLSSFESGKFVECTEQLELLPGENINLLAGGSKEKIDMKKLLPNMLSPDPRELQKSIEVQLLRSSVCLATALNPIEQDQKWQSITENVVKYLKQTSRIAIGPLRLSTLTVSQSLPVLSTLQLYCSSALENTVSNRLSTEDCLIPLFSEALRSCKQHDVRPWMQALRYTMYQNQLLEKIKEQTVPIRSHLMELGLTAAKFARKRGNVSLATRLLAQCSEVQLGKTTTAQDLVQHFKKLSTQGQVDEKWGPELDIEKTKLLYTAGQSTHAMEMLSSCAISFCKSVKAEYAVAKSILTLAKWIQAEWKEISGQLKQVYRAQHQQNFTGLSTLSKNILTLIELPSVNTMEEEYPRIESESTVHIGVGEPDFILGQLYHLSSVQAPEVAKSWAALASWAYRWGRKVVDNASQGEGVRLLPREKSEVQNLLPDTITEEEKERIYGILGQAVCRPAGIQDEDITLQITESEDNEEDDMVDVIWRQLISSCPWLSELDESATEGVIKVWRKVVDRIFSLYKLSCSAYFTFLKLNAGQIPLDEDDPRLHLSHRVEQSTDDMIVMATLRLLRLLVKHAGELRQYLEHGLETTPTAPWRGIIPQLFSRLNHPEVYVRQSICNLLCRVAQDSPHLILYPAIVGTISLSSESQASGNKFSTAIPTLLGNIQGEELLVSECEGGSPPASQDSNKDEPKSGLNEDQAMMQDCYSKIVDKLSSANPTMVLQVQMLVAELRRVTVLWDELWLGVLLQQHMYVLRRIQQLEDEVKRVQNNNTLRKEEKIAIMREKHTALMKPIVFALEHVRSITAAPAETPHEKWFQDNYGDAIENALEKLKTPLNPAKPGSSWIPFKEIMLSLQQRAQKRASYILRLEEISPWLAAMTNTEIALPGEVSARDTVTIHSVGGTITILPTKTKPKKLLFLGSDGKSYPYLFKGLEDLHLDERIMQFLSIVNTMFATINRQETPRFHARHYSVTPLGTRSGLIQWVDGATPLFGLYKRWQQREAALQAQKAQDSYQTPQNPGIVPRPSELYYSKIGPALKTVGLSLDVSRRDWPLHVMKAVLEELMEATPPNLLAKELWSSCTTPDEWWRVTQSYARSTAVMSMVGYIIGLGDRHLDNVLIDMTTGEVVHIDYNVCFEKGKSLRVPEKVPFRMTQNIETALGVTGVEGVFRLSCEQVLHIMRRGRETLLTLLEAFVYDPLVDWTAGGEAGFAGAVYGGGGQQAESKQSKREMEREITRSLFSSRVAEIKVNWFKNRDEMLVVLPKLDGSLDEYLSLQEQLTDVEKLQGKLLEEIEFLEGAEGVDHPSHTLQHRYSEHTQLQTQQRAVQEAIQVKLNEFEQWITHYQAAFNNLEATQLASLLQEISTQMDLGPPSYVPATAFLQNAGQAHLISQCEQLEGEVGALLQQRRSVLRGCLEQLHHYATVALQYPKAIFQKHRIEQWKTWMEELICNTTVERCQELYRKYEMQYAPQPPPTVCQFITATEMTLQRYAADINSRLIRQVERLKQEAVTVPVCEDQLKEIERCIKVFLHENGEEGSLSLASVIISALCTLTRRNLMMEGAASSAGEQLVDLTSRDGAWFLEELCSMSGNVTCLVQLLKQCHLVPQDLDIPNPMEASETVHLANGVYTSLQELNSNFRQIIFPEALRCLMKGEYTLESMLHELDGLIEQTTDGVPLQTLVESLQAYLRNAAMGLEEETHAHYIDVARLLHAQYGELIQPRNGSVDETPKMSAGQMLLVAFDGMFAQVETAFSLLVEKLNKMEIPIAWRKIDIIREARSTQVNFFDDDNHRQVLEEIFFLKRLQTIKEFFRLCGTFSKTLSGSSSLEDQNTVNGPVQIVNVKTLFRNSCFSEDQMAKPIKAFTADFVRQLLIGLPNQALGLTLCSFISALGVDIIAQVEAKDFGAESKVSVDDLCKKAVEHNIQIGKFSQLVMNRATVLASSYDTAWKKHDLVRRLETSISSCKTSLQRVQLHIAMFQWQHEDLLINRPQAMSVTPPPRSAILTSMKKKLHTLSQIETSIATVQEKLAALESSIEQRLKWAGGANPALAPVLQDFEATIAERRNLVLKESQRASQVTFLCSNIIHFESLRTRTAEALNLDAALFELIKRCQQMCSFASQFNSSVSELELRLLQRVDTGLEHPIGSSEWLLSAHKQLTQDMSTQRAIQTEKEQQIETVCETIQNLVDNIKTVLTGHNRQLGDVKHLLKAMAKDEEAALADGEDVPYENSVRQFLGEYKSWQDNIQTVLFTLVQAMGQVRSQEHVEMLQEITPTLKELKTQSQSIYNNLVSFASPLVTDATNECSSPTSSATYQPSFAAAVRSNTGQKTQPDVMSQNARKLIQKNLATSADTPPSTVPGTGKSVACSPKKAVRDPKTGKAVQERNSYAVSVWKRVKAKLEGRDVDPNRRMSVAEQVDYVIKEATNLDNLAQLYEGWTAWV
Sequence of PI3K-gamma (P48736 whole entry, species assumed): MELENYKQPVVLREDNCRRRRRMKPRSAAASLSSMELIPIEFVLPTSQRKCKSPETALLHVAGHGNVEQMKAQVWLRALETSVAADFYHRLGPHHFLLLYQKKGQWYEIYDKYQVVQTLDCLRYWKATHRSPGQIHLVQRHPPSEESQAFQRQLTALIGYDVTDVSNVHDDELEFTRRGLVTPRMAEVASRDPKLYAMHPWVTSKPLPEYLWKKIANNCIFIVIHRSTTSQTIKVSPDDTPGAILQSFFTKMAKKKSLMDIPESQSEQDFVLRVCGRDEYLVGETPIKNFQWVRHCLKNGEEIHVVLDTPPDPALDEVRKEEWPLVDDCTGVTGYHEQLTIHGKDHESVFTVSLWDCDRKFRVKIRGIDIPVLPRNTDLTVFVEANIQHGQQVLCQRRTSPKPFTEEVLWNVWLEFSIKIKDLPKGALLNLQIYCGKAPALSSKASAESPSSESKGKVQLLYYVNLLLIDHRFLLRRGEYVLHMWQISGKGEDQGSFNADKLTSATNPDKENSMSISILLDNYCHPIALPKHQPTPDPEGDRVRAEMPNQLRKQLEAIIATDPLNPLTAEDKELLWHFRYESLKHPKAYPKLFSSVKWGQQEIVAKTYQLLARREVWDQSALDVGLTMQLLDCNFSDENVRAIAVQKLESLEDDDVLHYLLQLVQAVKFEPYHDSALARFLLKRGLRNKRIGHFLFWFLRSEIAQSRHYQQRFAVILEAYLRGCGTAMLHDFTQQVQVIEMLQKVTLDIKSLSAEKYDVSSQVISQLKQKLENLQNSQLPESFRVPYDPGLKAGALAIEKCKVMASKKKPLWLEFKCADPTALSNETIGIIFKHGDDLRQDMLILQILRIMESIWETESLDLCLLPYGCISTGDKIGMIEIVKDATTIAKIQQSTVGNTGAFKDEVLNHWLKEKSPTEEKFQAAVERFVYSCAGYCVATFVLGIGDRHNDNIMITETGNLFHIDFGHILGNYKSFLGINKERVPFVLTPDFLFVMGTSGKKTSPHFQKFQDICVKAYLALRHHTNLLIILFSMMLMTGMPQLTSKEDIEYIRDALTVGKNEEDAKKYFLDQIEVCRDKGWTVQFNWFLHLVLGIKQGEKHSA
Sequence of hSMG-1 (Q96Q15 whole entry): as the sequence (Q96Q15 whole entry) above

Usually IC50 stands for the point on the concentration scale where inhibition reaches its midpoint. Regarding `CNC(=O)Nc1ccc(-c2nc(N3CCOCC3)c3ccc4c(ccn4CCN(C)C)c3n2)cc1` [Example 113, 1-(4-{7-[2-(dimethylamino)ethyl]-4-morpholin-4-yl-7H-pyrrolo[2,3-h]quinazolin-2-yl}phenyl)-3-methylurea], the IC50 was 0.427 µM at PI3K-alpha, 3.09 µM at PI3K-gamma, 0.49 µM at human SMG-1 (hSMG-1) and 0.067 µM at Human mTOR [1].

In the case of `CCNC(=O)Nc1ccc(-c2nc(N3CCOCC3)c3ccc4c(ccn4S(C)(=O)=O)c3n2)cc1` [Example 89, 1-ethyl-3-{4-[7-(methylsulfonyl)-4-morpholin-4-yl-7H-pyrrolo[2,3-h]quinazolin-2-yl]phenyl}urea], the IC50 in experiment [2] turned out to be 0.69 µM; in experiment [3], 1.9 µM; at human SMG-1 (hSMG-1), 0.2 µM.

As to `CO[C@H]1C[C@@H]2CC[C@@H](C)[C@@](O)(O2)C(=O)C(=O)N2CCCC[C@H]2C(=O)O[C@H]([C@H](C)C[C@@H]2CC[C@@H](OC(=O)C(C)(CO)CO)[C@H](OC)C2)CC(=O)[C@H](C)/C=C(\C)[C@@H](O)[C@@H](OC)C(=O)[C@H](C)C[C@H](C)/C=C/C=C/C=C/1C` [Torisel], the “activity in xenograft mouse model” value in experiment [4] is recorded as “active”.

As to `Cn1c(=O)c2c(ncn2C)n(C)c1=O` [caffeine], the IC50 at hSMG-1 is 300 µM.

As to `COC[C@H]1OC(=O)c2coc3c2[C@@]1(C)C1=C(C3=O)[C@@H]2CCC(=O)[C@@]2(C)C[C@H]1OC(C)=O` [Wortmannin], the IC50 on hSMG-1 was roughly 0.06 µM.

Regarding `CS(=O)(=O)n1ccc2c3nc(-c4ccc(NC(=O)Nc5cccnc5)cc4)nc(N4CCOCC4)c3ccc21` [Example 85, 1-{4-[7-(methylsulfonyl)-4-morpholin-4-yl-7H-pyrrolo[2,3-h]quinazolin-2-yl]phenyl}-3-pyridin-3-ylurea], the IC50 at PI3K-alpha came to 0.022 µM; at PI3K-gamma, 0.142 µM; in experiment [2], 0.048 µM; in experiment [3] it was 0.07 µM; on human SMG-1 (hSMG-1) it was 0.16 µM.

As for `CCCNC(=O)Nc1ccc(-c2nc(N3CCOCC3)c3ccc4c(ccn4S(C)(=O)=O)c3n2)cc1` [Example 121, 1-{4-[7-(methylsulfonyl)-4-morpholin-4-yl-7H-pyrrolo[2,3-h]quinazolin-2-yl]phenyl}-3-propylurea], the IC50 in [2] was found to be 2 µM; in experiment [3], 30 µM; on human SMG-1 (hSMG-1) it was 0.14 µM; on Human mTOR [1] it was 0.026 µM.

As to `FC(F)c1nc2ccccc2n1-c1nc(N2CCOCC2)nc(N2CCOCC2)n1` [ZSTK474, 2-(2-difluoromethylbenzoimidazol-1-yl)-4,6-dimorpholino-1,3,5-triazine], the tumor growth inhibition result in experiment [5] (chronic oral administration, 400 mg/kg, A549, PC-3, WiDr) is listed as “completely inhibited growth”. Also, the IC50 at Human mTOR [6] is greater than 10 µM.

For the compound `CNC(=O)Nc1ccc(-c2nc(N3CCOCC3)c3ccc4c(ccn4S(C)(=O)=O)c3n2)cc1` [Example 110, 1-methyl-3-{4-[7-(methylsulfonyl)-4-morpholin-4-yl-7H-pyrrolo[2,3-h]quinazolin-2-yl]phenyl}urea], the IC50 on PI3K-alpha was determined as 0.095 µM; on PI3K-gamma, 1.91 µM; in [2] it was 0.88 µM; in [3] it was 1.7 µM; on human SMG-1 (hSMG-1) it was 0.043 µM; on Human mTOR [1], 0.002 µM.

Take `Oc1cccc(-c2nc(N3CCOCC3)c3oc4ncccc4c3n2)c1` [PI103, 3-(4-(4-morpholinyl)pyrido[3′,2′:4,5]furo[3,2-d]pyrimidin-2-yl)phenol]: in experiment [5] (I.P. dosing in mice, U87MG, PC3, MDA-MB-468, MDA-MB-435, HCT 116, SKOV3, IGROV-1), the “activity against human tumor models” value is “demonstrated activity”.

For the compound `CN(C)CCn1ccc2c3nc(-c4ccc(NC(=O)Nc5cccnc5)cc4)nc(N4CCOCC4)c3ccc21` [Example 111, 1-(4-{7-[2-(dimethylamino)ethyl]-4-morpholin-4-yl-7H-pyrrolo[2,3-h]quinazolin-2-yl}phenyl)-3-pyridin-3-ylurea], the IC50 amounted to 0.118 µM on PI3K-alpha, 0.86 µM on PI3K-gamma, 0.29 µM at human SMG-1 (hSMG-1) and 0.015 µM at Human mTOR [1].

For the compound `Cn1c(=O)n(-c2ccc(C(C)(C)C#N)cc2)c2c3cc(-c4cnc5ccccc5c4)ccc3ncc21` [NVP-BEZ-235, 2-methyl-2-(4-(3-methyl-2-oxo-8-(quinolin-3-yl)-2,3-dihydro-1H-imidazo[4,5-c]quinolin-1-yl)phenyl)propanenitrile], in experiment [5] (prostrate (PC-3) and glioblastoma (U-87)), the “activity against human tumor models” value was “demonstrated activity”.
